Data from BindingDB's records for doi:10.1021/jm00083a001 (Ici Pharmaceuticals Group, 1992).

Test: Inhibition of prolyl 4-hydroxylase

| SMILES | IC50 [nM] |
| --- | --- |
| O=C(NS(=O)(=O)Cc1ccccc1)c1ccc(C(=O)O)nc1 | 3000 |
| O=C(NS(=O)(=O)c1cccc2ccccc12)c1ccc(C(=O)O)nc1 | 4400 |
| O=C(NS(=O)(=O)c1cccc2cccnc12)c1ccc(C(=O)O)nc1 | 1800 |
| O=C(NS(=O)(=O)c1ccc(-c2cc(Cl)c3ccc(Cl)cc3n2)cc1)c1ccc(C(=O)O)nc1 | 6600 |

Now from value to compound:

| IC50 [nM] | SMILES |
| --- | --- |
| 8500 | O=C(NS(=O)(=O)c1cc(Br)c(Br)s1)c1ccc(C(=O)O)nc1 |
| 2400 | O=C(NS(=O)(=O)c1ccc(Cl)s1)c1ccc(C(=O)O)nc1 |
| 1800 | CS(=O)(=O)NC(=O)c1ccc(C(=O)O)nc1 |
